Assay results as given in patent US10851067B2, “Kv7 channel activators compositions and methods of use” (Knopp Biosciences LLC, priority 2018, dated 2020).
pEC50: −log10 of the molar value.

Tests used:
[1] = biological target: T1, Kv7.2/7.3 (Homo sapiens, UniProt O43525+O43526); assay: Kv7.2/7.3 Thallium Flux Assay; assay type: cell-based; set-up: host or cells: HEK cells, tetracycline-inducible expression; conditions: read-out: Kv7.2/7.3 Activity: EC50 of Kv7.2/Kv7.3 activation
Excerpt: The Thallium Flux Assay is used as a surrogate indicator of potassium channel activity.
The experimental protocol was adapted from the FluxOR™ II Green Potassium Ion Channel Assay User Guide (Pub. No. MAN0016084, Invitrogen). Conditions were optimized for the Kv7.2/7.3 cell line.
The hKV7.2/7.3 cell line was obtained from Chantest (Cleveland, Ohio 44128) cat. #CT6147.
Kv7.2/7.3 cells were maintained in a media containing DMEM/F12; 50/50 (GIBCO cat. #11330), 10% Fetal Bovine Serum (FBS) (GIBCO cat. #26140), 100 units/mL Penicillin-Streptomycin (GIBCO cat. #15140), 0.005 mg/ml Blasticidin (SIGMA 15205), 0.5 mg/mL Geneticin (GIBCO cat. #10131), and 0.1 mg/mL Zeocin (GIBCO cat. #R25001). One day prior to experimentation, cells were plated in 96 well clear bottom plates (Corning cat. #353219) in a media without Blasticidin, Geneticin, or Zeocin. Channel expression was induced by adding tetracycline (Bioline cat. #BIO87030) at a final concentration of 10 ng/mL.
The test compound is diluted in a mixture of 0.1% DMSO/extracellular solution with an eight-point concentration range from 0.014 μM to 30 μM. Serial dilutions were made on a Biomek NXP (BECKMAN COULTER).
Measurement and Data Analysis:
A plate reader (Enspire, Perkin Elmer) is used to characterize the ion-channel modulating properties of novel compounds using an excitation wavelength of 475 nm and an emission wavelength of 530 nm. After a 15 sec baseline measurement, the stimulus buffer containing thallium and potassium is injected. A final endpoint measure is taken after 90 sec. Responses are normalized to positive control (retigabine, 30 µM max). Mean normalized responses at each concentration tested are fit to the standard Hill equation to generate an EC50 and maximal response.

[2] = biological target: T1, Kv7.2/7.3; assay: Kv7.2/7.3 FluxOR Potassium Ion Channel Assay (Invitrogen, F20015); assay type: cell-based

SMILES | pEC50 [1] | pEC50 [2]
CC(C)(C)CC(=O)Nc1nc2c(F)cc(C#N)cc2n1C1(C)CCC1 [Example 495, N-(6-cyano-4-fluoro-1-(1-methylcyclobutyl)-1H-benzo[d]imidazol-2-yl)-3,3-dimethylbutanamide] | > 6.00 | –
CC(C)(C)CC(=O)Nc1nc2ccc(C#N)c(OC(F)(F)F)c2n1C1CCC1 [Example 498, N-(6-cyano-1-cyclobutyl-7-(trifluoromethoxy)-1H-benzo[d]imidazol-2-yl)-3,3-dimethylbutanamide] | > 6.00 | –
CC(C)(C)CC(=O)Nc1nc2ccc(C(C)(C)O)c(OC(F)(F)F)c2n1C1CCC1 [Example 501, N-(1-cyclobutyl-6-(2-hydroxypropan-2-yl)-7-(trifluoromethoxy)-1H-benzo[d]imidazol-2-yl)-3,3-dimethylbutanamide] | 5.52 to 6.00 | –
CC(C)(O)c1cc(F)c2nc(NC(=O)C3(CC(F)F)CC3)n(C3CCC3)c2c1 [Example 502, N-(1-cyclobutyl-4-fluoro-6-(2-hydroxypropan-2-yl)-1H-benzo[d]imidazol-2-yl)-1-(2,2-difluoroethyl)cyclopropane-1-carboxamide] | 5.00 to 5.52 | –
CC(C)(O)c1ccc2nc(NC(=O)Cc3ccc(F)cc3F)n(C3(C)CCC3)c2c1 [Example 505, 2-(2,4-difluorophenyl)-N-(6-(2-hydroxypropan-2-yl)-1-(1-methylcyclobutyl)-1H-benzo[d]imidazol-2-yl)acetamide] | > 6.00 | –
CC(C)(C)CC(=O)Nc1nc2ccc(C#N)c(C(F)(F)F)c2n1C1CCC1 [Example 507, N-(6-cyano-1-cyclobutyl-7-(trifluoromethyl)-1H-benzo[d]imidazol-2-yl)-3,3-dimethylbutanamide] | > 6.00 | –
COc1cc(C#N)cc2c1nc(NC(=O)C13CCC(C1)C3)n2C(C)(C)C [Example 510, N-(1-(tert-butyl)-6-cyano-4-methoxy-1H-benzo[d]imidazol-2-yl)bicyclo[2.1.1]hexane-1-carboxamide] | 5.52 to 6.00 | –
CC(C)(O)c1ccc2nc(NC(=O)CC34CC(C3)C4)n(C3(C)CCC3)c2c1 [Example 511, 2-(bicyclo[1.1,1]pentan-1-yl)-N-(6-(2-hydroxypropan-2-yl)-1-(1-methylcyclobutyl)-1H-benzo[d]imidazol-2-yl)acetamide] | > 6.00 | –
COc1cc(C#N)cc2c1nc(NC(=O)CC1CC(F)(F)C1(F)F)n2C(C)(C)C (stereo not drawn) [Example 514, N-(1-(tert-butyl)-6-cyano-4-methoxy-1H-benzo[d]imidazol-2-yl)-2-(2,2,3,3-tetrafluorocyclobutyl)acetamide] | > 6.00 | –
CC(C)(C)CC(=O)Nc1nc2cccc(OC(F)(F)F)c2n1C1CCC1 [Example 516, N-(1-cyclobutyl-7-(trifluoromethoxy)-1H-benzo[d]imidazol-2-yl)-3,3-dimethylbutanamide] | > 6.00 | –
CC(C)(C)CC(=O)Nc1nc2c(F)cc(C#N)c(F)c2n1C1(C)CCC1 [Example 517, N-(6-cyano-4,7-difluoro-1-(1-methylcyclobutyl)-1H-benzo[d]imidazol-2-yl)-3,3-dimethylbutanamide] | > 6.00 | –
CC(C)(CC(=O)Nc1nc2ccc(C#N)cc2n1C1CCC1)c1ccccn1 [Example 518, N-(6-cyano-1-cyclobutyl-1H-benzo[d]imidazol-2-yl)-3-methyl-3-(pyridin-2-yl)butanamide] | 5.52 to 6.00 | –
COc1cc(C#N)cc2c1nc(NC(=O)CC1(C(F)(F)F)CC1)n2C(C)(C)C [Example 520, N-(1-(tert-butyl)-6-cyano-4-methoxy-1H-benzo[d]imidazol-2-yl)-2-(1-(trifluoromethyl)cyclopropyl)acetamide] | 5.00 to 5.52 | –
[2H]C([2H])([2H])C(CC(=O)Nc1nc2c(F)cc(C#N)cc2n1C1(C)CCC1)(C([2H])([2H])[2H])C([2H])([2H])[2H] [Example 521, N-(6-cyano-4-fluoro-1-(1-methylcyclobutyl)-1H-benzo[d]imidazol-2-yl)-3,3-bis(methyl-d3)butanamide] | > 6.00 | –
CC1(n2c(NC(=O)CC3(C(F)(F)F)CC3)nc3cc(F)cc(F)c32)CCC1 [Example 522, N-(5,7-difluoro-1-(1-methylcyclobutyl)-1H-benzo[d]imidazol-2-yl)-2-(1-(trifluoromethyl)cyclopropyl)acetamide] | > 6.00 | –
CC(C)(CC(=O)Nc1nc2cc(F)ccc2n1C1(C)CCC1)C(F)F [Example 524, 4,4-difluoro-N-(5-fluoro-1-(1-methylcyclobutyl)-1H-benzo[d]imidazol-2-yl)-3,3-dimethylbutanamide] | > 6.00 | –
CC1(n2c(NC(=O)CC3(C(F)(F)F)CC3)nc3cc(F)ccc32)CCC1 [Example 527, N-(5-fluoro-1-(1-methylcyclobutyl)-1H-benzo[d]imidazol-2-yl)-2-(1-(trifluoromethyl)cyclopropyl)acetamide] | > 6.00 | –
CC(C)(C)n1c(NC(=O)CC(C)(C)C(F)(F)F)nc2cc(F)cc(F)c21 [Example 530, N-(1-(tert-butyl)-5,7-difluoro-1H-benzo[d]imidazol-2-yl)-4,4,4-trifluoro-3,3-dimethylbutanamide] | > 6.00 | –
CC(C)(C)n1c(NC(=O)CC2(C(F)(F)F)CC2)nc2cc(F)cc(F)c21 [Example 531, N-(1-(tert-butyl)-5,7-difluoro-1H-benzo[d]imidazol-2-yl)-2-(1-(trifluoromethyl)cyclopropyl)acetamide] | > 6.00 | –
CC(C)(CC(=O)Nc1nc2cc(F)c(F)cc2n1C1(C)CCC1)C(F)F [Example 533, N-(5,6-difluoro-1-(1-methylcyclobutyl)-1H-benzo[d]imidazol-2-yl)-4,4-difluoro-3,3-dimethylbutanamide] | > 6.00 | –
CC1(n2c(NC(=O)CC3(C(F)(F)F)CC3)nc3cc(F)c(F)c(F)c32)CCC1 [Example 534, N-(5,6,7-trifluoro-1-(1-methylcyclobutyl)-1H-benzo[d]imidazol-2-yl)-2-(1-(trifluoromethyl)cyclopropyl)acetamide] | > 6.00 | –
CC1(n2c(NC(=O)CC3(C(F)(F)F)CC3)nc3cc(F)c(F)cc32)CCC1 [Example 538, N-(5,6-difluoro-1-(1-methylcyclobutyl)-1H-benzo[d]imidazol-2-yl)-2-(1-(trifluoromethyl)cyclopropyl)acetamide] | > 6.00 | –
CC(C)(CC(=O)Nc1nc2ccc(F)c(C#N)c2n1C1(C)CCC1)C1CC1 [Example 541, N-(7-cyano-6-fluoro-1-(1-methylcyclobutyl)-1H-benzo[d]imidazol-2-yl)-3-cyclopropyl-3-methylbutanamide] | > 6.00 | –
CC(C)(CC(=O)Nc1nc2cc(F)cc(C#N)c2n1C1(C)CCC1)C1CC1 [Example 547, N-(7-cyano-5-fluoro-1-(1-methylcyclobutyl)-1H-benzo[d]imidazol-2-yl)-3-cyclopropyl-3-methylbutanamide] | > 6.00 | –
CC(C)(C)CC(=O)Nc1nc2ccc(F)c(Br)c2n1C1(C)CCC1 [Example 550, N-(7-bromo-6-fluoro-1-(1-methylcyclobutyl)-1H-benzo[d]imidazol-2-yl)-3,3-dimethylbutanamide] | > 6.00 | –
C=Cc1c(F)ccc2nc(NC(=O)CC(C)(C)C)n(C3CCC3)c12 [Example 552, N-(1-cyclobutyl-6-fluoro-7-vinyl-1H-benzo[d]imidazol-2-yl)-3,3-dimethylbutanamide] | > 6.00 | –
COc1cc(C#N)cc2c1nc(NC(=O)CC(C)(C)C(F)(F)F)n2C1(C)CCC1 [Example 554] | > 6.00 | –
CC1(n2c(NC(=O)CC(C)(C)C(F)(F)F)nc3ccc(Cl)c(F)c32)CCC1 [Example 555, N-(6-chloro-7-fluoro-1-(1-methylcyclobutyl)-1H-benzo[d]imidazol-2-yl)-4,4,4-trifluoro-3,3-dimethylbutanamide] | > 6.00 | –
CC1(n2c(NC(=O)CC3(C(F)(F)F)CC3)nc3c(F)cc(C#N)cc32)CCC1 [Example 561, N-(6-cyano-4-fluoro-1-(1-methylcyclobutyl)-1H-benzo[d]imidazol-2-yl)-2-(1-(trifluoromethyl)cyclopropyl)acetamide] | > 6.00 | –
CCOC(=O)Nc1ccc(NCc2ccc(F)cc2)cc1N [ezogabine] | – | 5.96
